Test results: patent US20020127717A1, “Preparation of replicating macrophages and use in diagnosis and therapy” (priority 2000, published 2002)

Key:
[1] = tested on: human Kupffer cell isolates (KC-1, KC-2, KC-3); test: DNA synthesis assay (3H-Thymidine), stimulation by growth factors, Kupffer cell isolates; format: cell-based; parameters: key: ratio: uptake with stimulatory agent / uptake in medium alone
[2] = tested on: Bovine Capillary Endothelial Cells (BCE); test: DNA synthesis assay (3H-Thymidine), stimulation by growth factors, BCE; format: cell-based
Experimental: (§1) DNA Synthesis Assay: DNA synthesis was determined by culturing the cells with ^3H-Thymidine as is standard in the art. The KC isolates used in the assay were at day 21 post liver isolation. The normal endothelial cells and foreskin fibroblasts were cultured in media consisting of RPMI-1640, fetal bovine serum 20% supplemented with specific factors as described in Nakamura S and Salahuddin SZ, Science 242: 426-430,1988. KC isolates were cultured as described above. Cells were harvested between 4 hours and 18 hours culture depending on the stimulatory agent used. A stimulation index was calculated by dividing radioactivity incorporated into cells with the stimulatory agent versus cells in culture medium alone.
(§2) Cultured Cells: Human umbilical vein endothelial cells (HUV-E) were prepared as described in Nakamura et al, Science 1988. Bovine capillary endothelial cells (BCE) were a gift from Dr. Peter Biberfeld of Karolinska Institute, Stockholm, Sweden. Normal human foreskin fibroblasts (HSF) were obtained from the American Type Tissue Culture Collection (ATCC), Rockville, Md. (CRL-1635).
(§3) Various growth factors were tested for their ability to stimulate growth of the human Kupffer cell isolates (KC-3) and other cell types. KC isolates used in this experiment were grown in culture for 21 days with MCG medium.

[3] = tested on: Human Umbilical Vein Endothelial Cells (HUV-E); test: DNA synthesis assay (3H-Thymidine), stimulation by growth factors, HUVE; format: cell-based
Experimental: as §1, §2, §3

[4] = tested on: human Kupffer cell isolates (KC-1, KC-2, KC-3); test: DNA synthesis assay (3H-Thymidine), stimulation by growth factors, Kupffer cell isolates; format: cell-based; parameters: key to Stimulation Index of Cultured Target cells: ratio: uptake with stimulatory agent / uptake in medium alone; details: for effect on DNA synthesis of KC isolates (in words): KC isolates grown 21 days in MCG medium, summary of Table 3
Experimental: as §1, §3

[5] = tested on: Human Foreskin Fibroblast Cells (HSF); test: DNA synthesis assay (3H-Thymidine), stimulation by growth factors, HSF; format: cell-based; details: HFS
Experimental: as §1, §2, §3

[6] = target: T1, Ulex Europaeus-I Agglutimin (UEA-I) (Ulex europaeus, UniProt P22972); test: FITC-UEA-I lectin binding to acetone-fixed cells, specificity control; details: 0.2M, room temperature, 30 minutes preincubation
T1 construct: purchased Vector Laboratories, Inc
T1 sequence (P22972 1-243): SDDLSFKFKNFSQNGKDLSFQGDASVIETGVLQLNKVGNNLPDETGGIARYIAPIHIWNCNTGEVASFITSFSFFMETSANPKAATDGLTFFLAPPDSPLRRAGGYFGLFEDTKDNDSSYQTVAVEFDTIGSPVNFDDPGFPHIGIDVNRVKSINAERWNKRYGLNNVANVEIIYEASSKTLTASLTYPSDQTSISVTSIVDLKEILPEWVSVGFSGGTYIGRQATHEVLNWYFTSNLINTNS
Experimental: FITC-conjugated Ulex Europaeus-I Agglutimin (UEA-I) (Vector Laboratories, Inc.) was incubated with acetone-fixed cells at 37° C. for 1 hour. The specificity of UEA-I, the lectin was determined by preincubating with 0.2M […] (Sigma), at room temperature for 30 minutes.

| Molecule | Stimulation Index of Cultured Target cells ([1]; KC-1, HC (hydrocortisone) +) | Stimulation Index of Cultured Target cells ([1]; KC-2, HC (hydrocortisone) +) | Stimulation Index of Cultured Target cells ([2]; HC (hydrocortisone) +) | Stimulation Index of Cultured Target cells ([3]; HC (hydrocortisone) +) | Stimulation Index of Cultured Target cells ([4]; KC-3, HC (hydrocortisone) +) | Stimulation Index of Cultured Target cells ([5]; HC (hydrocortisone) +) | Stimulation Index of Cultured Target cells ([1]; KC-1, HC (hydrocortisone) −) | Stimulation Index of Cultured Target cells ([1]; KC-2, HC (hydrocortisone) −) | Stimulation Index of Cultured Target cells ([2]; HC (hydrocortisone) −) | Stimulation Index of Cultured Target cells ([3]; HC (hydrocortisone) −) | effect on DNA synthesis of KC isolates (in words) [4] | Stimulation Index of Cultured Target cells ([4]; KC-3, HC (hydrocortisone) −) | Stimulation Index of Cultured Target cells ([5]; HC (hydrocortisone) −) | binding of UEA-I after preincubating the lectin [6] |
| --- | --- | --- | --- | --- | --- | --- | --- | --- | --- | --- | --- | --- | --- | --- |
| TNFα | 0.8 | 0.9 | 1.2 | 1.0 | 1.2 | 0.8 | – | – | – | – | – | – | – | – |
| EGF: epidermal growth factor | 0.9 | 0.9 | 2.9 | – | 0.6 | 1.1 | 1.2 | 1.1 | 6.8 | 25.4 | little to no effect | 1.2 | 2.8 | – |
| BFGF: bFGF = Fibroblast Growth Factor β, Lot # 14765800, Boehringer Manheim | 0.5 | 0.5 | 2.3 | 15.4 | 1.2 | 1.9 | 0.8 | 0.6 | 6.2 | 35.4 | little to no effect | 1.2 | 2.2 | – |
| O=C(CO)[C@H](O)[C@@H](O)[C@@H](O)CO [L-fructose] | – | – | – | – | – | – | – | – | – | – | – | – | – | No binding was observed |
| PDGF | 1.1 | 1.2 | 1.8 | 20.2 | 1.1 | 1.5 | 1.2 | 1.4 | 4.4 | 10.0 | little to no effect | 1.4 | 1.4 | – |
